How the values were obtained:
[1] = system: α-amylase, Lactoferrin, Lysozyme, Mucin, EGF, IgA; type: biochemical
[2] = biological target: T1, SARS-CoV2 Spike RBD (Severe acute respiratory syndrome coronavirus 2, UniProt P0DTC2); type: biochemical, SARS-CoV-2
T1 construct: purchased Sino Biological, Inc. 40592-V08H

[3] = biological target: MERS-CoV Spike S1 (Middle East respiratory syndrome-related coronavirus, UniProt K9N5Q8); type: biochemical
[4] = biological target: T2, SARS-CoV2 Spike S2 (Severe acute respiratory syndrome coronavirus 2, UniProt P0DTC2); type: biochemical, SARS-CoV-2
T2 construct: SARS-CoV2 Spike S2 (Product number: 40590-V08H1); purchased Sino Biological, Inc. 40590-V08H1

[5] = system: human serum-derived IgA; type: biochemical
[6] = biological target: T3, SARS-CoV2 Spike S1 (Severe acute respiratory syndrome coronavirus 2, UniProt P0DTC2); type: biochemical, SARS-CoV-2
T3 construct: SARS-CoV2 Spike S1 (Product number: 40591-V08); purchased Sino Biological, Inc. 40591-V08

[7] = biological target: SARS-CoV Spike S1 (Severe acute respiratory syndrome coronavirus, UniProt P59594); type: biochemical

Chain of MERS-CoV Spike S1 (K9N5Q8 18-751 limits assumed): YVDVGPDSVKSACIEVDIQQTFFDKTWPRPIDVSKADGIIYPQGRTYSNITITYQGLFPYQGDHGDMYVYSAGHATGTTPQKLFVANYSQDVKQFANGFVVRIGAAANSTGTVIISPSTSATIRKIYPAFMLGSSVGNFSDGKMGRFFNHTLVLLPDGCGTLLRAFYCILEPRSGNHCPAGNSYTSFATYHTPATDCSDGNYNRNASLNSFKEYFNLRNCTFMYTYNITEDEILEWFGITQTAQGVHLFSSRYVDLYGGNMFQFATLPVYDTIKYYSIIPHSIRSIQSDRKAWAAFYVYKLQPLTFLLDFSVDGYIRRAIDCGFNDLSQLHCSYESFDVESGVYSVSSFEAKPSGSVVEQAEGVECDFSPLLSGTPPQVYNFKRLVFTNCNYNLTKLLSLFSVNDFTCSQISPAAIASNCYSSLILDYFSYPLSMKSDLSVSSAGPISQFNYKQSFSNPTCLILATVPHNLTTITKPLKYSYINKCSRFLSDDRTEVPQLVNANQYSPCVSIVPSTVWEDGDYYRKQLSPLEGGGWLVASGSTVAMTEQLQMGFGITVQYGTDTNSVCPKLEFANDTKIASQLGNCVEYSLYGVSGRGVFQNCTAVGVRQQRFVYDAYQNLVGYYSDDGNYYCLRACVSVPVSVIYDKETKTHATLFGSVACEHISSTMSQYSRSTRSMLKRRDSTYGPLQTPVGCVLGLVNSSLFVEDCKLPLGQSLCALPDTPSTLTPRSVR

CCC(C)c1nc2c(CCCNC(=N)N)[nH]c(-c3c[nH]c4ccccc34)cn-2c1=O (centres unmarked) [Cypridina Luciferin]
luminescent reaction with various proteins [1]: did not cause a luminescent reaction
luminescent reaction at the RBD domain [2]: did not cause a reaction at the PBD domain at all
reaction with the protein of MERS-CoV [3]: did not react
luminescent reaction at S2 [4]: caused a luminescent reaction
luminescent reaction with immunoglobulin protein IgA [5]: did not cause a luminescent reaction
luminescent reaction at S1 [6]: caused a luminescent reaction
reaction with spike protein of SARS-CoV-2 [6]: reacted
reaction with spike protein of SARS-CoV [7]: reacted

Source: patent US20260016473A1 (priority 2022, published 2026)
